Laboratory results: US20250206757A1 (GASHERBRUM BIO, INC., priority 2022, published 2025)

molecular target: GLP-1 Receptor (Homo sapiens, UniProt P43220); test: GLP-1R agonist cAMP stimulation assay (HEK293/GLP1R/CRE-LUC cells, HTRF cAMP dynamic 2 kit); format: cell-based; conditions: HEK293/CRE-Luc cell line stably expressing the GLP-1 Receptor; 30 min incubation at 37° C.
Outline: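 HEK293 cells stably expressing GLP-1R with CRE-Luc, 1000 cells/well in DPBS with 0.5 mM IBMX and 0.10% BSA, exposed to half-log compound dilutions for 30 min at 37 °C. cAMP measured by HTRF (665/615 nm) after 1 h at room temperature.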

Chain of GLP-1 Receptor (P43220 24-463): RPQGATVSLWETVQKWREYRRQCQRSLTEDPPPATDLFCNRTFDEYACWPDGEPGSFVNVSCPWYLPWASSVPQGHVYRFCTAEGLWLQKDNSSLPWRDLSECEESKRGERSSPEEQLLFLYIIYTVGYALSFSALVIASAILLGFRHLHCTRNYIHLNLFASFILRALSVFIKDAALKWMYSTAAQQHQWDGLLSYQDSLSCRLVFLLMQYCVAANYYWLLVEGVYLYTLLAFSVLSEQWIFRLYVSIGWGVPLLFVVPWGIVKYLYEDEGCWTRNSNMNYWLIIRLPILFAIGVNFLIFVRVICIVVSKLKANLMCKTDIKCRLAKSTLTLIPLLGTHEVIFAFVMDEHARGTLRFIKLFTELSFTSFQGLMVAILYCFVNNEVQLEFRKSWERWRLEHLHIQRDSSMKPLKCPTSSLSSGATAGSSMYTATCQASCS

SMILES | EC50
Fc1cc(Cl)ccc1COc1nc2c(cc1C1CC1)CCN(Cc1nc3cc(-c4nnc(C(F)(F)F)[nH]4)cnc3n1C[C@@H]1CCO1)C2 [Compound 3, 2-[(4-chloro-2-fluorophenyl)methoxy]-3-cyclopropyl-7-[(3-{[(2S)-oxetan-2-yl]methyl}-6-[5-(trifluoromethyl)-4H-1,2,4-triazol-3-yl]-3H-imidazo[4,5-b]pyridin-2-yl)methyl]-5,6,7,8-tetrahydro-1,7-naphthyridine] | 1 to 300 nM
Fc1cc(Cl)ccc1COc1nc2c(cc1Cl)CCN(Cc1nc3cc(-c4nnc(C(F)(F)F)[nH]4)ncc3n1C[C@@H]1CCO1)C2 [Compound 5, 3-chloro-2-[(4-chloro-2-fluorophenyl)methoxy]-7-[(3-{1[(2S)-oxetan-2-yl]methyl}-6-[5-(trifluoromethyl)-4H-1,2,4-triazol-3-yl]-3H-imidazo[4,5-c]pyridin-2-yl)methyl]-5,6,7,8-tetrahydro-1,7-naphthyridine] | < 1 nM
Fc1cc(Cl)cc(F)c1COc1nc2c(cc1C(F)(F)F)CCN(Cc1nc3cc(-c4nnn[nH]4)cnc3n1C[C@@H]1CCO1)C2 [Compound 89, 2-[(4-chloro-2,6-difluorophenyl)methoxy]-7-[(3-{[(2S)-oxetan-2-yl]methyl}-6-(11H-1,2,3,4-tetrazol-5-yl)-3H-imidazo[4,5-b]pyridin-2-yl)methyl]-3-(trifluoromethyl)-5,6,7,8-tetrahydro-1,7-naphthyridine] | < 1 nM
Cc1cc2c(nc1OCc1c(F)cc(Cl)cc1F)CN(Cc1nc3cc(-c4nnc(C#N)[nH]4)ncc3n1C[C@@H]1CCO1)CC2 [Compound 40, 5-[2-({2-[(4-chloro-2,6-difluorophenyl)methoxy]-3-methyl-5,6,7,8-tetrahydro-1,7-naphthyridin-7-yl}methyl)-3-{[(2S)-oxetan-2-yl]methyl}-3H-imidazo[4,5-c]pyridin-6-yl]-4H-1,2,4-triazole-3-carbonitrile] | < 1 nM
Fc1cc(Cl)ccc1CNc1nc2c(cc1C(F)(F)F)CCN(Cc1nc3cc(-c4nnc(C(F)(F)F)[nH]4)ncc3n1C[C@@H]1CCO1)C2 [Compound 109, N-[(4-chloro-2-fluorophenyl)methyl]-7-[(3-{1[(2S)-oxetan-2-yl]methyl}-6-[5-(trifluoromethyl)-4H-1,2,4-triazol-3-yl]-3H-imidazo[4,5-c]pyridin-2-yl)methyl]-3-(trifluoromethyl)-5,6,7,8-tetrahydro-1,7-naphthyridin-2-amine] | < 1 nM
O=C(O)c1ccc2c(n1)nc(CN1CCc3cc(C(F)(F)F)c(OCc4ccc(Cl)cc4F)nc3C1)n2C[C@@H]1CCO1 [Compound 25, 2-({2-[(4-chloro-2-fluorophenyl)methoxy]-3-(trifluoromethyl)-5,6,7,8-tetrahydro-1,7-naphthyridin-7-yl}methyl)-1-{[(2S)-oxetan-2-yl]methyl}-1H-imidazo[4,5-b]pyridine-5-carboxylic acid] | 1 to 300 nM
N#Cc1cc2c(nc1OCc1c(F)cc(Cl)cc1F)CN(Cc1nc3cc(-c4nnc(C(F)(F)F)[nH]4)ncc3n1C[C@@H]1CCO1)CC2 [Compound 71, 2-[(4-chloro-2,6-difluorophenyl)methoxy]-7-[(3-{[(2S)-oxetan-2-yl]methyl}-6-[5-(trifluoromethyl)-4H-1,2,4-triazol-3-yl]-3H-imidazo[4,5-c]pyridin-2-yl)methyl]-5,6,7,8-tetrahydro-1,7-naphthyridine-3-carbonitrile] | < 1 nM
O=c1[nH]c(-c2cc3c(nc(CN4CCc5cc(C(F)(F)F)c(OCc6ccc(Cl)cc6F)nc5C4)n3C[C@@H]3CCO3)s2)no1 [Compound 58, 3-[2-({2-[(4-chloro-2-fluorophenyl)methoxy]-3-(trifluoromethyl)-5,6,7,8-tetrahydro-1,7-naphthyridin-7-yl}methyl)-1-{[(2S)-oxetan-2-yl]methyl}-1H-thieno[2,3-d]imidazol-5-yl]-4,5-dihydro-1,2,4-oxadiazol-5-one] | < 1 nM
O=c1[nH]nc(-c2cc3nc(CN4CCc5cc(C(F)(F)F)c(OCc6ccc(Cl)cc6F)nc5C4)n(C[C@@H]4CCO4)c3cn2)[nH]1 [Compound 97, 3-[2-({2-[(4-chloro-2-fluorophenyl)methoxy]-3-(trifluoromethyl)-5,6,7,8-tetrahydro-1,7-naphthyridin-7-yl}methyl)-3-{[(2S)-oxetan-2-yl]methyl}-3H-imidazo[4,5-c]pyridin-6-yl]-4,5-dihydro-1H-1,2,4-triazol-5-one] | < 1 nM
CC(c1nc2cc(-c3nnc(C(F)(F)F)[nH]3)ncc2n1C[C@@H]1CCO1)N1CCc2cc(C(F)(F)F)c(OCc3c(F)cc(Cl)cc3F)nc2C1 (stereo partly drawn) [Compound 83, 2-[(4-chloro-2,6-difluorophenyl)methoxy]-7-[1-(3-{1[(2S)-oxetan-2-yl]methyl}-6-[5-(trifluoromethyl)-4H-1,2,4-triazol-3-yl]-3H-imidazo[4,5-c]pyridin-2-yl)ethyl]-3-(trifluoromethyl)-5,6,7,8-tetrahydro-1,7-naphthyridine] | < 1 nM

Results, then the compound that gave them:

EC50 | SMILES
< 1 nM | Fc1cc(Cl)ccc1COc1nc2cc(Cc3nc4cc(-c5nnc(C(F)(F)F)[nH]5)ncc4n3C[C@@H]3CCO3)ccc2cc1C(F)(F)F [Compound 98, 2-[(4-chloro-2-fluorophenyl)methoxy]-7-[(3-{[(2S)-oxetan-2-yl]methyl}-6-[5-(trifluoromethyl)-4H-1,2,4-triazol-3-yl]-3H-imidazo[4,5-c]pyridin-2-yl)methyl]-3-(trifluoromethyl)quinoline]
< 1 nM | Cc1cc2c(nc1OCc1c(F)cc(Cl)cc1F)CN(Cc1nc3cc(-c4nnc(C(F)F)[nH]4)ncc3n1C[C@@H]1CCO1)CC2 [Compound 56, 2-[(4-chloro-2,6-difluorophenyl)methoxy]-7-({6-[5-(difluoromethyl)-4H-1,2,4-triazol-3-yl]-3-{[(2S)-oxetan-2-yl]methyl}-3H-imidazo[4,5-c]pyridin-2-yl}methyl)-3-methyl-5,6,7,8-tetrahydro-1,7-naphthyridine]
1 to 300 nM | Fc1cc(Cl)ccc1COc1nc2c(cc1C(F)(F)F)CCN(Cc1nc3cc(-c4nnc(C(F)(F)F)[nH]4)ncc3n1C[C@@H]1CCOC1)C2 [Compound 77, 2-[(4-chloro-2-fluorophenyl)methoxy]-7-[(3-{1[(3S)-oxolan-3-yl]methyl}-6-[5-(trifluoromethyl)-4H-1,2,4-triazol-3-yl]-3H-imidazo[4,5-c]pyridin-2-yl)methyl]-3-(trifluoromethyl)-5,6,7,8-tetrahydro-1,7-naphthyridine]
1 to 300 nM | Cc1nnc(-c2cc3c(nc(CN4CCc5cc(C(F)(F)F)c(OCc6ccc(Cl)cc6F)nc5C4)n3C[C@@H]3CCO3)s2)[nH]1 [Compound 60, 2-[(4-chloro-2-fluorophenyl)methoxy]-7-{[5-(5-methyl-4H-1,2,4-triazol-3-yl)-1-{[(2S)-oxetan-2-yl]methyl}-1H-thieno[2,3-d]imidazol-2-yl]methyl}-3-(trifluoromethyl)-5,6,7,8-tetrahydro-1,7-naphthyridine]
< 1 nM | O=c1[nH]c(-c2ccc3c(n2)nc(CN2CCc4cc(C(F)(F)F)c(OCc5ccc(Cl)cc5F)nc4C2)n3C[C@@H]2CCO2)no1 [Compound 49, 3-[2-({2-[(4-chloro-2-fluorophenyl)methoxy]-3-(trifluoromethyl)-5,6,7,8-tetrahydro-1,7-naphthyridin-7-yl}methyl)-1-{[(2S)-oxetan-2-yl]methyl}-11H-imidazo[4,5-b]pyridin-5-yl]-4,5-dihydro-1,2,4-oxadiazol-5-one]
< 1 nM | O=c1[nH]c(-c2cc3nc(CN4CCc5cc(C(F)(F)F)c(OCc6ccc(Cl)cc6)nc5C4)n(C[C@@H]4CCO4)c3cn2)no1 [Compound 31, 3-[2-({2-[(4-chlorophenyl)methoxy]-3-(trifluoromethyl)-5,6,7,8-tetrahydro-1,7-naphthyridin-7-yl}methyl)-3-{[(2S)-oxetan-2-yl]methyl}-3H-imidazo[4,5-c]pyridin-6-yl]-4,5-dihydro-1,2,4-oxadiazol-5-one]
< 1 nM | FC(F)(F)c1nnc(-c2cc3nc(CN4CCc5cc(C(F)(F)F)c(OCc6ccc(Cl)cc6)nc5C4)n(C[C@@H]4CCO4)c3cn2)[nH]1 [Compound 54, 2-[(4-chlorophenyl)methoxy]-7-[(3-{1[(2S)-oxetan-2-yl]methyl}-6-[5-(trifluoromethyl)-4H-1,2,4-triazol-3-yl]-3H-imidazo[4,5-c]pyridin-2-yl)methyl]-3-(trifluoromethyl)-5,6,7,8-tetrahydro-1,7-naphthyridine]
< 1 nM | Fc1cc(Cl)cc(F)c1CNc1nc2c(cc1C(F)(F)F)CCN(Cc1nc3cc(-c4nnc(C5CC5)[nH]4)ncc3n1C[C@@H]1CCO1)C2 [Compound 110, N-[(4-chloro-2,6-difluorophenyl)methyl]-7-{[6-(5-cyclopropyl-4H-1,2,4-triazol-3-yl)-3-{[(2S)-oxetan-2-yl]methyl}-3H-imidazo[4,5-c]pyridin-2-yl]methyl}-3-(trifluoromethyl)-5,6,7,8-tetrahydro-1,7-naphthyridin-2-amine]
< 1 nM | CNC(=O)c1nnc(-c2cc3nc(CN4CCc5cc(C(F)(F)F)c(OCc6ccc(Cl)cc6F)nc5C4)n(C[C@@H]4CCO4)c3cn2)[nH]1 [Compound 94, 5-[2-({2-[(4-chloro-2-fluorophenyl)methoxy]-3-(trifluoromethyl)-5,6,7,8-tetrahydro-1,7-naphthyridin-7-yl}methyl)-3-{[(2S)-oxetan-2-yl]methyl}-3H-imidazo[4,5-c]pyridin-6-yl]-N-methyl-4H-1,2,4-triazole-3-carboxamide]
< 1 nM | Fc1cc(Cl)ccc1COc1nc2c(cc1C(F)F)CCN(Cc1nc3cc(-c4nnc(C(F)(F)F)[nH]4)ncc3n1C[C@@H]1CCO1)C2 [Compound 72, 2-[(4-chloro-2-fluorophenyl)methoxy]-3-(difluoromethyl)-7-[(3-{[(2S)-oxetan-2-yl]methyl}-6-[5-(trifluoromethyl)-4H-1,2,4-triazol-3-yl]-3H-imidazo[4,5-c]pyridin-2-yl)methyl]-5,6,7,8-tetrahydro-1,7-naphthyridine]
